Reference: patent US20020160008A1, “TREATMENT OF DIABETES” (priority 1994, published 2002)
“Also recorded” adds a separate entry of the source.

What was measured:
[1] = Sustacal meal with intravenous GLIP infusion 1.2 pm/kg/min in remission phase Type I diabetes (Example 1); assay type: in vivo, human; details: IV GLIP 1.2 pm/kg/min for 120 min after Sustacal meal
Procedure: 7 subjects with remission phase Type I diabetes were studied after ingestion of a standardised meal of Sustacal (Upjohn) (delivering […]). Subjects continued their normal insulin treatment programme on the day prior to the test and, on the day of the test, omitted their morning insulin injection and arrived fasting at 8:00 am. […] Infusion was continued for 120 minutes. Blood levels of glucose, C-peptide, gastrin, glucagon and HPP were monitored by standard radioimmunoassay methods in samples taken before and at intervals during the study, up to 180 minutes. On another test day, subjects were given the Sustacal meal alone and the same analytes were similarly monitored.

[2] = Intravenous glucose infusion with intravenous GLIP in remission phase Type I diabetes (Example 2); assay type: in vivo, human; details: IV GLIP 1.2 pm/kg/min for 60 min with IV glucose 20 g over 60 min, FIG. 2
Procedure: Four subjects with remission phase Type I diabetes were studied during intravenous glucose infusion. Subjects prepared for the tests as described in Example 1, but received an intravenous infusion of glucose (20 g over 60 min. constant rate)instead of the Sustacal meal. […] Blood levels of glucose and C-peptide were monitored as in Example 1.

[3] = Sustacal meal with GLIP infusion 0.75 pm/kg/min in remission phase Type I diabetes (Example 3); assay type: in vivo, human; details: GLIP 0.75 pmol/kg/min for 120 min with Sustacal meal, versus saline infusion; FIG. 3
Procedure: The test was conducted as described in Example 1 and blood glucose and C-peptide levels were measured. On a further test day, the subjects were studied during saline infusion after a similar Sustacal meal.

[4] = Sustacal meal preceded by subcutaneous GLIP injection in normal volunteers (Example 4); assay type: in vivo, human; details: for delay in increase in blood levels of glucose, HPP, C-peptide and insulin: compared with the first dose
Procedure: 7 normal volunteers were studied after ingestion of a Sustacal meal either alone or immediately preceded by a subcutaneous injection of 1.00 μg GLIP.

[5] = Sustacal meal preceded by subcutaneous GLIP injection in Type I diabetic subjects (Example 5); assay type: in vivo, human; details: Type I diabetics, 100 μg GLIP subcutaneously before Sustacal meal
Text: 7 Type I diabetic subjects were studied.

[6] = 50 μg GLIP plus 5 units insulin (half the usual dose) subcutaneously before Sustacal meal; one subject; FIG. 6 Panel A
Text: One Type 1 diabetic subject was given GLIP along with insulin and the effects on post-prandial glycaemia observed. […] Blood levels of GLIP were monitored by a standard radioimmunoassay method.

Substance: Glucagon-like peptide 1(7-36)amide [GLIP]
- blood levels of C-peptide [1]: prevented a significant increase in blood levels of C-peptide
- plasma glucagon levels stimulated by the meal [1]: prevented the mean rise in plasma glucagon levels
- control of blood glucose level after a meal ([1]; FIG. 1 Panel A): excellent control of blood glucose level
- pancreatic polypeptide (PP) response to meal ([1]; FIG. 1 Panel C): this response was absent during GLIP infusion
- gastrin response / gastrin levels ([1]; FIG. 1 Panel E): normal gastrin response; also recorded: not significantly affected
- control of blood glucose level [2]: improved control of blood glucose level
- secretion of endogenous insulin [2]: stimulated secretion of endogenous insulin
- C-peptide after meal [3]: rise in C-peptide was similar to the control experiment
- blood glucose after meal [3]: increase in glucose was less than in the control experiment
- delay in increase in blood levels of glucose, HPP, C-peptide and insulin ([4]; 50 μg GLIP): proportionally shorter
- delay in increase in blood levels of glucose, HPP, C-peptide and insulin ([4]; 200 μg GLIP): longer delays
- increase in blood levels of glucose, HPP, C-peptide and insulin ([4]; subcutaneous GLIP (1.00 μg as printed elsewhere in the source) before Sustacal meal, FIG. 4): A delay in increase
- blood glucose levels compared to control ([5]; no morning insulin, FIG. 5 Panel A): lowering of blood glucose levels
- pancreatic polypeptide (HPP) levels ([5]; FIG. 5 Panel D): delayed rise in pancreatic polypeptide (HPP) levels
- insulin secretion (C-peptide, insulin) ([5]; FIG. 5 Panels B and C): no enhancement of insulin secretion over control levels
- blood glucose after standard meal (maximum) [6]: ≤ 8 mM
